Test results reported in patent publication US20240132473A1, “SULFOXIMIDE SUBSTITUTED INDAZOLE IRAK4 KINASE INHIBITOR, PREPARATION METHOD THEREOF AND USE THEREOF” (Shanghai Xunhe Pharmaceutical Technology Co. Ltd., priority 2021, published 2024).

Key:
hERG potassium channel = hERG potassium channel (Homo sapiens (Human), UniProt Q12809); assay: cell-based; details: human
Excerpt: The rapid activation of delayed rectifier outward potassium current (IKr) in humans is mainly mediated by hERG ion channel and participates in human myocardial cell repolarization. Drug blockade of this current will lead to the appearance of QT interval prolongation syndrome in clinical practice, which can easily induce acute arrhythmia and even sudden death.

IRAK4 kinase = IRAK4 kinase (Homo sapiens (Human), UniProt Q9NWZ3); assay: IRAK4 kinase inhibitory activity assay (mobility shift assay, Km ATP); format: biochemical; details: MSA, ATP 37 μM (Km ATP)
Method: The inhibitory activity (IC50) of the compound on IRAK4 kinase under Km ATP was detected by mobility shift assay (MSA). Ten drug concentration gradients were set (initial concentration 1 μM, 3-fold dilution, 2 duplicate wells per concentration). […] After incubation at 28° C. for a period of time, 10 μL of termination buffer was added to terminate the reaction. The conversion rate data was read with Caliper, and then the conversion rate was converted into inhibition rate data. According to the inhibition rate data of each concentration, the IC50 of half inhibitory concentration was calculated by Logit method (Table 3).

in vivo [1] = details: rat, po; for half-life: SD, in vivo; for AUC(0-t) / Cmax / Tmax: plasma, 25 mg/kg
Method: SD rats were used as the test animals.
Standard curve and preparation and processing of quality control samples:
Stock solution was diluted with 50% acetonitrile-water to obtain standard working solutions of 0.04, 0.10, 0.20, 0.40, 1.00, 2.00, 4.00 μg/mL, and quality control working solutions of 0.10, 1.00, 3.00 μg/mL. […] 200 μL of acetonitrile (containing 5 ng/mL of the internal standard loratadine) was added. After the vortex oscillation for 3 minutes, the solutions were centrifuged at 15000 rpm at 4° C. for 15 minutes. 100 μL of the supernatant was taken for LC-MS/MS analysis. WinNonlin ® 8.0 was used to calculate the experimental results.

in vivo [2] = details: ICR, mouse, po
Method: On the day of administration, observations were made approximately 0.5, 1, 2, 4, and 6 hours after the first administration. During day 2 to day 6 of the observation period, observations were made twice a day, once in the morning and once in the afternoon.
Observations included but not limited to: general conditions, behavioral activities, gait and posture, eyes, mouth, nose, gastrointestinal tract, skin hair and urogenital tract.
Weight data were expressed as mean ±standard deviation. Levene's test and one-way analysis of variance were used for comparison between groups. If there was a difference, Dunnet t test was then used.
The maximum tolerated dose refers to the dose administered when the animal was dying.

[3] = test system: TNF-α secretion in THP-1 cells; assay: Inhibition of LPS-stimulated TNF-α secretion in THP-1 cells (ELISA); format: cell-based; details: Homo sapiens, LPS 1 μg/mL, 4.5 hours
Method: TNF-α is a key cytokine involved in the inflammatory process of the listed autoimmune disease, such as rheumatoid arthritis, psoriatic arthritis, ankylosing spondylitis, psoriasis, Crohn's disease, ulcerative colitis, etc. In this test, TNF-α secretion was triggered by incubation with bacterial lipopolysaccharides (LPS). […] The 96-well plate was rotated at 2000 rpm for 5 minutes, and then 50 μL of supernatant was taken. The content of TNF-α in the supernatant was determined by human ELISA kit, and IC50 value of the compound was calculated by XL-Fit (table 4).

hERG potassium channel, sequence (Q12809 whole entry): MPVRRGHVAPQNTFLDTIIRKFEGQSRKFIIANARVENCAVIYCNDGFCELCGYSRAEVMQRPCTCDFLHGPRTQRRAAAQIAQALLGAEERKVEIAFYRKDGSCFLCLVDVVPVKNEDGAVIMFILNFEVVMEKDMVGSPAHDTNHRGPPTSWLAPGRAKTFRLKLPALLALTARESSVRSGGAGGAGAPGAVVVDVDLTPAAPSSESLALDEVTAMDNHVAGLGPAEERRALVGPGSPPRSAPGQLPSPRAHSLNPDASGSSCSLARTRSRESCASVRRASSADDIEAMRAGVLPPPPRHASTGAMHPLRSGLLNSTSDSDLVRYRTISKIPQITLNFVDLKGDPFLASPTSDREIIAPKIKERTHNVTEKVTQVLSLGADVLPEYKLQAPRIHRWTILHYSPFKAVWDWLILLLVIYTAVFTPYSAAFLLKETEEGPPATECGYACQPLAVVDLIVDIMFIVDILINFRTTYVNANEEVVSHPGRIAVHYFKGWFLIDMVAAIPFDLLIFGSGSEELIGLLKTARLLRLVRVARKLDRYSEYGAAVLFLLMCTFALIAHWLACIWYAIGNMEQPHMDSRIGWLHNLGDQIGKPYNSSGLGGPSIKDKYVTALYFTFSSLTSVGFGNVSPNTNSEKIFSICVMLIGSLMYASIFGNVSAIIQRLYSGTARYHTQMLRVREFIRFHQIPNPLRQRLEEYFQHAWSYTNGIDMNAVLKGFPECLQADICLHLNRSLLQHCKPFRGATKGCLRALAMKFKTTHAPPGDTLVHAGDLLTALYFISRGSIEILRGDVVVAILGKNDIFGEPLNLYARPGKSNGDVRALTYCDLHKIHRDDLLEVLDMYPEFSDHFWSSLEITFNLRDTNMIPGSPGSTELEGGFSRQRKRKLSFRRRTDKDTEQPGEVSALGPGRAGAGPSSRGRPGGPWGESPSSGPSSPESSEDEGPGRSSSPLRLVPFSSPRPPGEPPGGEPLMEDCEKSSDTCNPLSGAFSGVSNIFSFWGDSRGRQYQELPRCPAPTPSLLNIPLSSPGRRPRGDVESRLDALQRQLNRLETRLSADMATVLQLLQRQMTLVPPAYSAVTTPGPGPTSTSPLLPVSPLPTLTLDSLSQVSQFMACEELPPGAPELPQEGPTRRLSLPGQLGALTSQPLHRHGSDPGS
IRAK4 kinase, sequence (Q9NWZ3 whole entry): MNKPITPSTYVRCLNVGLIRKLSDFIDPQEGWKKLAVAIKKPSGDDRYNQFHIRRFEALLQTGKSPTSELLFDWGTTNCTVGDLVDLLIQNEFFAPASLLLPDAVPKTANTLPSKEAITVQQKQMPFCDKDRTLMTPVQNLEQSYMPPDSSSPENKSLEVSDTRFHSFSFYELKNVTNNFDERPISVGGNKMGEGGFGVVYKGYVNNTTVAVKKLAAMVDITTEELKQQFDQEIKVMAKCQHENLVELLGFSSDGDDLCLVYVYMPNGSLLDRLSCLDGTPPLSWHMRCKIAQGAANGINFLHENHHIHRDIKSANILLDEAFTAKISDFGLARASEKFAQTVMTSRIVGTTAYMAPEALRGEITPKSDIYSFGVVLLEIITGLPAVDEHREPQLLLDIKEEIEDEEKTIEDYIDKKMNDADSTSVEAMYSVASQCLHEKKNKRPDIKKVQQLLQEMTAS

Structure (SMILES)	Inhibition rate (%) of hERG current (hERG potassium channel; 5 μM) [%]	Inhibition rate (%) of hERG current (hERG potassium channel; 50 μM) [%]	Inhibition rate (%) of hERG current (hERG potassium channel; 500 μM) [%]	IC50 (IRAK4 kinase) [pM]	half-life (in vivo [1]) [h]	AUC(0-t) (in vivo [1]) [ng·h/mL]	Cmax (in vivo [1]) [ng/mL]	Tmax (in vivo [1]) [h]	MTD at 6 days (in vivo [2]) [mg/kg]	IC50 [3] [pM]
CC(C)(O)c1cc2nn(CCS(=N)(=O)c3ncnc4ccccc34)cc2cc1NC(=O)c1cccc(C(F)(F)F)n1 (centres unmarked) [Compound I-34]	-1.6	1.0	11.5	500	5.3	8000	1630	5.5	> 2000	500
COc1cc2nn(CCS(=N)(=O)c3ncccn3)cc2cc1NC(=O)c1cccc(C(F)(F)F)n1 (centres unmarked) [Compound I-31]	1.7	-0.2	6.7	600	4.5	7980	1300	4.8	> 2000	1300
Cc1cc(-c2nc(C(=O)Nc3cc4cn(CCS(=N)(=O)c5ccnc6ccccc56)nc4cc3C(C)(C)O)co2)ccn1 (centres unmarked) [Compound I-29]	-3.9	1.2	13.9	600	5.8	8130	1370	5.9	> 2000	900
CC(C)(O)c1cc2nn(CCS(=N)(=O)c3ccnc4ccccc34)cc2cc1NC(=O)c1cccc(C(F)(F)F)n1 (centres unmarked) [Compound I-10]	0.1	0.9	20.3	1100	4.7	9000	1510	6.3	> 2000	1000
COc1cc2nn(CCS(=N)(=O)c3ccncc3)cc2cc1NC(=O)c1cnn2cccnc12 (centres unmarked) [Compound I-21]	2.3	2.1	29.7	500	5.2	9400	1520	5.8	> 2000	900
